From patent US10759836B2, “Cancer vaccine compositions and methods of use thereof” (UNIVERSITY OF WASHINGTON, priority 2014, dated 2020)
“Also recorded” adds a separate entry of the source.

Tests used:
[1] = system: small bowel tumor burden in APCmin mice; experiment: APCmin mouse model: small bowel tumor count after peptide vaccination; type: in vivo; conditions: for effect on small bowel tumor burden (tumor count): APCmin mice, vs CFA/IFA control, 50 ug per peptide s.c.; for peptide efficacy, APCmin Small Bowel (Spontaneous): summary table, Yes/No
Method: (§1) Offspring from APCmin were genotyped by PCR for the presence of the Min mutation using primers as follows: Wild-Type: 5′-[…]-3′ (SEQ ID NO: 46), Common 5′-[…]-3′ (SEQ ID NO: 47), Mutant: 5′-[…]-3′ (SEQ ID NO: 48). Both male and female mice testing positive for the Min mutation were included in the study and randomized into groups.
(§2) At 4-6 weeks of age, mice were immunized in CFA/IFA, PBS, and vaccine groups. Each group received subcutaneous injections (100 ul PBS, 50 ul CFA with 50 ul PBS, 50 ug per peptide with 50 ul CFA) once every 7-10 days for a total of three doses and one booster was given 4-5 weeks after the third vaccine. See Table 5 for peptides included in vaccine compositions. CFA was replaced with IFA after the first vaccine. All mice were sacrificed at 14 to 17 weeks of age, the gastrointestinal tracts were collected and tumors counted.

[2] = system: colon tumor burden in APCmin mice; experiment: APCmin mouse model: colon tumor count after peptide vaccination; type: in vivo; conditions: for effect on colon tumor burden (tumor count): APCmin mice, vs CFA/IFA control, 50 ug per peptide s.c.; for peptide efficacy, APCmin Colon (Spontaneous): summary table, Yes/No
Method: as §1, §2

[3] = system: small bowel tumor burden in APCmin mice; experiment: APCmin survival study: small bowel tumor count at sacrifice; type: in vivo; conditions: boosters every 4-5 weeks, vs CFA/IFA
Method: At 4-6 weeks of age, mice were immunized with CFA/IFA, PBS, and vaccine groups. Each group received subcutaneous injections (100 ul PBS, 50 ul CFA with 50 ul PBS, 50 ug per peptide with 50 ul CFA) once every 7-10 days for a total of three doses and a booster vaccine was given every 4-5 weeks after the third vaccine. See Table 6 for peptides included in vaccine compositions. CFA was replaced with IFA after the first vaccine. […] At sacrifice, small intestines were collected and small bowel tumors counted.

[4] = system: colon tumor burden in AOM mice (Azoxymethane + FVB); experiment: AOM mouse model: colon tumor count after peptide vaccination; type: in vivo; conditions: for effect on colon tumor burden (tumor count): AOM treated FVB mice, vs control group (CFA/IFA; PBS for IGF1R, PRL3, RCAS1); for peptide efficacy, Azoxymethane + FVB (Induced): summary table, Yes/No
Method: AOM mouse in-vivo experiments. At 6 weeks of age, FVB mice were immunized in CFA/IFA, PBS, and vaccine groups. Each group received subcutaneous injections (100 ul PBS, 50 ul CFA with 50 ul PBS, 50 ug per peptide with 50 ul CFA) once every 10-14 days for a total of three doses and a booster was given every 4-5 weeks after the third vaccine. See Table 7 for peptides included in vaccine compositions. CFA was replaced with IFA after the first vaccine. Seven days after the third vaccine, mice were injected with Azoxymethane (AOM) at 10 mg/kg, twice weekly for 6 weeks. At 26 weeks of age, all mice were sacrificed and tumors in the colon were counted.

[5] = system: MC-38 cells (murine adenocarcinoma); experiment: MC-38 tumor implant model: tumor volume after peptide vaccination; type: in vivo, C57Bl/6 mice; conditions: for effect on tumor volume: MC-38 tumor implant in C57Bl/6 mice, vs CFA/IFA; for peptide efficacy, MC-38 + B6 (Tumor Implant): summary table, Yes/No
Method: MC-38 tumor implant in-vivo experiments. At 6 weeks of age, mice were immunized in CFA/IFA, PBS, and vaccine groups. Each group received subcutaneous injections (100 ul PBS, 50 ul CFA with 50 ul PBS, 50 ug per peptide with 50 ul CFA) once every 10-14 days for a total of three doses. See Table 9 for peptides included in vaccine compositions. CFA was replaced with IFA for the second and third vaccines. Two weeks after the final vaccine, we subcutaneously implanted 4×10^4 MC-38 cells (murine adenocarcinoma), and measured tumor growth with Vernier calipers 2-3 times per week. Tumor volume was calculated as length×width×height×π/6, which is the standard volume calculation of an ellipsoid. Mice were sacrificed when tumor size in control mice reached greater than 1000 mm^3.

Substance	effect on small bowel tumor burden (tumor count) [1]	peptide efficacy, APCmin Small Bowel (Spontaneous) [1]	effect on colon tumor burden (tumor count) [2]	peptide efficacy, APCmin Colon (Spontaneous) [2]	effect on small bowel tumor burden (tumor count) [3]	effect on colon tumor burden (tumor count) [4]	peptide efficacy, Azoxymethane + FVB (Induced) [4]	effect on tumor volume [5]	peptide efficacy, MC-38 + B6 (Tumor Implant) [5]
COX2: peptide vaccine of COX-2 #32, #33, #34, 50 ug per peptide with CFA/IFA (chain 1 FKGFWNVVNNIPFLRN; chain 2 GLVPGLMMYATIWLREH; chain 3 GEVGFQIINTASIQSLIC; with CFA/IFA adjuvant)	significantly inhibits; also recorded: vaccine efficacy	Yes	does not significantly inhibit; also recorded: lack of COX2 vaccine efficacy	No	does not significantly inhibit	vaccine efficacy; also recorded: significantly inhibits	Yes	significantly inhibits	Yes
IGF1R: peptide vaccine of IGF1R #1, #2, #3, #4, 50 ug per peptide with CFA/IFA (chain 1 VVTGYVKIRHSHALV; chain 2 TQYAVYVKAVTLTMV; chain 3 LVIMLYVFHRKRNNS; chain 4 GMAYLNANKFVHRDL; with CFA/IFA adjuvant)	vaccine efficacy; also recorded: significantly inhibits	Yes	lack of IGF1R vaccine efficacy; also recorded: does not significantly inhibit	No		lack of IGF1R vaccine efficacy; also recorded: does not significantly inhibit	No	does not significantly inhibit	No
CDC25B: peptide vaccine of CDC25B #38 (p130-150) and #39 (p405-427), 50 ug per peptide with CFA/IFA (chain 1 QAIQAASRIIRNEQFAIRRFQ; chain 2 VDGKHQDLKYISPETMVALLTGK; with CFA/IFA adjuvant)	significantly inhibits; also recorded: vaccine efficacy	Yes	does not significantly inhibit; also recorded: lack of CDC25B vaccine efficacy	No	does not significantly inhibit	vaccine efficacy; also recorded: significantly inhibits	Yes	significantly inhibits	Yes
